ChEMBL document CHEMBL3046052, “New thiazolidinedione-5-acetic acid amide derivatives: synthesis, characterization and investigation of antimicrobial and cytotoxic properties” (Med Chem Res, 2012)
Values after ≈ are worked out from the molar mass of the structure shown.

Experiments:
[1] = tested on: Staphylococcus aureus; experiment: Antibacterial activity against Staphylococcus aureus ATCC 25923 after 24 hr by NCCLS two fold serial dilution method; assay type: functional; conditions: ATCC 25923, 24 h
[2] = tested on: Aspergillus flavus; experiment: Antifungal activity against Aspergillus flavus NCIM 524 after 48 hr by NCCLS two-foldserial dilution method; assay type: functional; conditions: NCIM 524, 48 h
[3] = tested on: Enterococcus faecalis; experiment: Antibacterial activity against Enterococcus faecalis ATCC 35550 after 24 hr by NCCLS two-fold serial dilution method; assay type: functional; conditions: ATCC 35550, 24 h
[4] = tested on: Aspergillus niger; experiment: Antifungal activity against Aspergillus niger ATCC 6275 after 48 hr by NCCLS two-fold serial dilution method; assay type: functional; conditions: ATCC 6275, 48 h
[5] = tested on: Cryptococcus neoformans; experiment: Antifungal activity against Cryptococcus neoformans clinical isolate after 48 hr by NCCLS two-fold serial dilution method; assay type: functional
[6] = tested on: HT-29; experiment: Cytotoxicity against Homo sapiens (human) HT-29 cells after 24 hr by MTT assay; assay type: functional, cell-based; conditions: HT-29, 24 h
[7] = tested on: Escherichia coli; experiment: Antibacterial activity against Escherichia coli ATCC 35218 after 24 hr by NCCLS two-fold serial dilution method; assay type: functional; conditions: ATCC 35218, 24 h
[8] = tested on: A549; experiment: Cytotoxicity against Homo sapiens (human) A549 cells after 24 hr by MTT assay; assay type: functional, cell-based; conditions: A549, 24 h
[9] = tested on: Pseudomonas aeruginosa; experiment: Antibacterial activity against Pseudomonas aeruginosa ATCC 25619 after 24 hr by NCCLS two-fold serial dilution method; assay type: functional; conditions: ATCC 25619, 24 h
[10] = tested on: HeLa; experiment: Cytotoxicity against Homo sapiens (human) HeLa cells after 24 hr by MTT assay; assay type: functional, cell-based
[11] = tested on: Candida albicans; experiment: Antifungal activity against Candida albicans ATCC 2091 after 48 hr by NCCLS two-fold serial dilution method; assay type: functional; conditions: ATCC 2091, 48 h
[12] = tested on: MCF7; experiment: Cytotoxicity against Homo sapiens (human) MCF7 cells after 24 hr by MTT assay; assay type: functional, cell-based; conditions: MCF7, 24 h

Row | MIC [1] | MIC [2] | MIC [3] | MIC [4] | MIC [5] | MIC [7] | MIC [9] | MIC [11] | SMILES | IC50 [6] | IC50 [8] | IC50 [10] | IC50 [12]
1 | 32 µg/mL (≈ 84.3 µM) | 64 µg/mL (≈ 169 µM) | 64 µg/mL (≈ 169 µM) | 16 µg/mL (≈ 42.2 µM) | 64 µg/mL (≈ 169 µM) | 64 µg/mL (≈ 169 µM) | 64 µg/mL (≈ 169 µM) | 64 µg/mL (≈ 169 µM) | O=C(CC1SC(=O)NC1=O)Nc1nnc(-c2ccccc2[N+](=O)[O-])s1 (centres undefined) | 68 µM | 72 µM | 50 µM | 78 µM
2 | 32 µg/mL (≈ 84.3 µM) | 64 µg/mL (≈ 169 µM) | 64 µg/mL (≈ 169 µM) | 64 µg/mL (≈ 169 µM) | 64 µg/mL (≈ 169 µM) | 64 µg/mL (≈ 169 µM) | 32 µg/mL (≈ 84.3 µM) | 64 µg/mL (≈ 169 µM) | O=C(CC1SC(=O)NC1=O)Nc1nnc(-c2cccc([N+](=O)[O-])c2)s1 (centres undefined) | 72 µM | 78 µM | 68 µM | 67 µM
3 | 32 µg/mL (≈ 84.3 µM) | 32 µg/mL (≈ 84.3 µM) | 32 µg/mL (≈ 84.3 µM) | 64 µg/mL (≈ 169 µM) | 64 µg/mL (≈ 169 µM) | 64 µg/mL (≈ 169 µM) | 64 µg/mL (≈ 169 µM) | 64 µg/mL (≈ 169 µM) | O=C(CC1SC(=O)NC1=O)Nc1nnc(-c2ccc([N+](=O)[O-])cc2)s1 (centres undefined) | 60 µM | 68 µM | 50 µM | 72 µM
4 | 4 µg/mL (≈ 11.4 µM) | 8 µg/mL (≈ 22.7 µM) | 4 µg/mL (≈ 11.4 µM) | 4 µg/mL (≈ 11.4 µM) | 8 µg/mL (≈ 22.7 µM) | 8 µg/mL (≈ 22.7 µM) | 8 µg/mL (≈ 22.7 µM) | 8 µg/mL (≈ 22.7 µM) | O=C(CC1SC(=O)NC1=O)Nc1nnc(-c2ccc(F)cc2)s1 (centres undefined) | 42 µM | 50 µM | 50 µM | 60 µM
5 | 8 µg/mL (≈ 23 µM) | 32 µg/mL (≈ 91.8 µM) | 4 µg/mL (≈ 11.5 µM) | 32 µg/mL (≈ 91.8 µM) | 32 µg/mL (≈ 91.8 µM) | 16 µg/mL (≈ 45.9 µM) | 16 µg/mL (≈ 45.9 µM) | 16 µg/mL (≈ 45.9 µM) | Cc1ccc(-c2nnc(NC(=O)CC3SC(=O)NC3=O)s2)cc1 (centres undefined) | 58 µM | 46 µM | 50 µM | 52 µM
6 | 4 µg/mL (≈ 11 µM) | 16 µg/mL (≈ 43.9 µM) | 8 µg/mL (≈ 22 µM) | 32 µg/mL (≈ 87.8 µM) | 16 µg/mL (≈ 43.9 µM) | 16 µg/mL (≈ 43.9 µM) | 32 µg/mL (≈ 87.8 µM) | 16 µg/mL (≈ 43.9 µM) | COc1cccc(-c2nnc(NC(=O)CC3SC(=O)NC3=O)s2)c1 (centres undefined) | 56 µM | 60 µM | 54 µM | 58 µM
7 | 32 µg/mL (≈ 95.7 µM) | 64 µg/mL (≈ 191 µM) | 64 µg/mL (≈ 191 µM) | 64 µg/mL (≈ 191 µM) | 64 µg/mL (≈ 191 µM) | 64 µg/mL (≈ 191 µM) | 64 µg/mL (≈ 191 µM) | 64 µg/mL (≈ 191 µM) | O=C(CC1SC(=O)NC1=O)Nc1nnc(-c2ccccc2)s1 (centres undefined) | 78 µM | 80 µM | 62 µM | 80 µM

The next lines start with the compound.

Row | SMILES | MIC [1] | MIC [2] | MIC [3] | MIC [4] | MIC [5] | MIC [7] | MIC [9] | MIC [11] | IC50 [6] | IC50 [8] | IC50 [10] | IC50 [12]
8 | O=C(CC1SC(=O)NC1=O)Nc1nnc(C(F)(F)F)s1 (centres undefined) | 32 µg/mL (≈ 98.1 µM) | 32 µg/mL (≈ 98.1 µM) | 32 µg/mL (≈ 98.1 µM) | 16 µg/mL (≈ 49 µM) | 16 µg/mL (≈ 49 µM) | 32 µg/mL (≈ 98.1 µM) | 32 µg/mL (≈ 98.1 µM) | 16 µg/mL (≈ 49 µM) | 50 µM | 60 µM | 42 µM | 62 µM
9 | O=C(CC1SC(=O)NC1=O)Nc1nnc(-c2ccc(Cl)cc2)s1 (centres undefined) | 4 µg/mL (≈ 10.8 µM) | 16 µg/mL (≈ 43.4 µM) | 32 µg/mL (≈ 86.8 µM) | 16 µg/mL (≈ 43.4 µM) | 16 µg/mL (≈ 43.4 µM) | 32 µg/mL (≈ 86.8 µM) | 32 µg/mL (≈ 86.8 µM) | 16 µg/mL (≈ 43.4 µM) | 64 µM | 60 µM | 62 µM | 68 µM
10 | O=C(CC1SC(=O)NC1=O)Nc1nnc(-c2ccc(Br)cc2)s1 (centres undefined) | 8 µg/mL (≈ 19.4 µM) | 16 µg/mL (≈ 38.7 µM) | 32 µg/mL (≈ 77.4 µM) | 16 µg/mL (≈ 38.7 µM) | 16 µg/mL (≈ 38.7 µM) | 32 µg/mL (≈ 77.4 µM) | 32 µg/mL (≈ 77.4 µM) | 16 µg/mL (≈ 38.7 µM) | 60 µM | 68 µM | 52 µM | 72 µM
11 | O=C(CC1SC(=O)NC1=O)Nc1nnc(-c2ccccc2Cl)s1 (centres undefined) | 16 µg/mL (≈ 43.4 µM) | 32 µg/mL (≈ 86.8 µM) | 16 µg/mL (≈ 43.4 µM) | 16 µg/mL (≈ 43.4 µM) | 16 µg/mL (≈ 43.4 µM) | 32 µg/mL (≈ 86.8 µM) | 32 µg/mL (≈ 86.8 µM) | 16 µg/mL (≈ 43.4 µM) | 66 µM | 62 µM | 60 µM | 84 µM
12 | COc1ccc(-c2nnc(NC(=O)CC3SC(=O)NC3=O)s2)cc1 (centres undefined) | 16 µg/mL (≈ 43.9 µM) | 32 µg/mL (≈ 87.8 µM) | 4 µg/mL (≈ 11 µM) | 16 µg/mL (≈ 43.9 µM) | 16 µg/mL (≈ 43.9 µM) | 32 µg/mL (≈ 87.8 µM) | 16 µg/mL (≈ 43.9 µM) | 16 µg/mL (≈ 43.9 µM) | 44 µM | 45 µM | 42 µM | 42 µM
13 | COc1ccc(-c2nnc(NC(=O)CC3SC(=O)NC3=O)s2)cc1OC (centres undefined) | 16 µg/mL (≈ 40.6 µM) | 16 µg/mL (≈ 40.6 µM) | 32 µg/mL (≈ 81.1 µM) | 32 µg/mL (≈ 81.1 µM) | 16 µg/mL (≈ 40.6 µM) | 16 µg/mL (≈ 40.6 µM) | 16 µg/mL (≈ 40.6 µM) | 16 µg/mL (≈ 40.6 µM) | 42 µM | 35 µM | 40 µM | 38 µM
14 | COc1cc(-c2nnc(NC(=O)CC3SC(=O)NC3=O)s2)cc(OC)c1OC (centres undefined) | 16 µg/mL (≈ 37.7 µM) | 16 µg/mL (≈ 37.7 µM) | 16 µg/mL (≈ 37.7 µM) | 16 µg/mL (≈ 37.7 µM) | 32 µg/mL (≈ 75.4 µM) | 16 µg/mL (≈ 37.7 µM) | 16 µg/mL (≈ 37.7 µM) | 16 µg/mL (≈ 37.7 µM) | 35 µM | 30 µM | 33 µM | 36 µM
15 | CC1(C)S[C@@H]2[C@H](NC(=O)[C@H](N)c3ccccc3)C(=O)N2[C@H]1C(=O)O [AMPICILLIN] | 2 µg/mL (≈ 5.72 µM) | – | 2 µg/mL (≈ 5.72 µM) | – | – | – | – | – | – | – | – | –
16 | CC(=O)N1CCN(c2ccc(OCC3COC(Cn4ccnc4)(c4ccc(Cl)cc4Cl)O3)cc2)CC1 (centres undefined) [KETOCONAZOLE] | – | 1 µg/mL (≈ 1.88 µM) | – | 2 µg/mL (≈ 3.76 µM) | 2 µg/mL (≈ 3.76 µM) | – | – | 2 µg/mL (≈ 3.76 µM) | – | – | – | –
